Experimental data from paper PMC12675575, “A BRET biosensor for measuring uncompetitive engagement of PRMT5 complexes in cells” (Nature Communications, 2025).
“And” between values parts separate entries of the source, which are not always exact repeats. Identical values can stand only once.

Key:
MAT2A [1] = assay: BRET probe sensitivity to MAT2A inhibition (Compound A) in live HEK293 cells expressing NLuc-PRMT5; type: cell-based; settings: for normalized BRET signal (Figure S3D) / Normalized BRET probe signal: Log([Compound A]); for normalized BRET signal (Figure S3D): replicates; for Normalized BRET probe signal: 37 °C
Description: To measure BRET probe sensitivity to both MAT2A inhibition and exogenous MTA in live cells, HEK293 cells were pre-treated with 30 nM CBH-002 and incubated at 37 °C and 5% CO2 for 2 h. For MAT2A inhibition, a 20 µM, 3-fold, 11 pt titration series of Compound A (Selleckchem) was added to wells. Cells were incubated either at 37 °C (Fig. 3D) or room temperature (Fig. S3D). Data were normalized using Eq. (2), where BRETMIN = instrument background (no CBH-002), and BRETMAX = 2 h vehicle treatment, and fit curves were generated using Eq. (1). For MTA sensitivity cells were treated with a 1 mM, 11 pt, 2-fold series of MTA (Sigma) and cells were incubated at room temperature for 2 h, reading in 15 min intervals. Data were normalized using Eq. (2), where BRETMIN = instrument background (no CBH-002), and BRETMAX = 2 h + vehicle treatment. Data were fit with Eq. (1).

MAT2A [2] = assay: as above; type: cell-based; settings: Log([Compound A]), 37 °C
Z-138 cells = test system: Z-138 cells; set-up: method as in ref 2,3 (a number printed in a supplementary file, which may have a reference list of its own: not looked up in the article's list); settings: read-out: Proliferation (nM), IC50; cited from earlier work
[3] = target: NLuc-PRMT5 co-expressed with WDR77 (Homo sapiens, UniProt O14744); assay: Compound EC50 titrations against MTA, NanoBRET in HEK293 (NLuc-PRMT5 + WDR77), with global Gaddum/Schild or Morrison fits
Description: MTA (Sigma) was prepared at 100× in 100% DMSO and diluted to 10× in Opti-MEM. Inhibitors were run as 11 pt, 3-fold dilution curves and MTA as a seven point, 3-fold dilution curve starting at 100 μM. Cells were incubated for 2 h at 37 °C and 5% CO2 prior to BRET measurements. Data was normalized using Eq. (2) where BRETMIN = saturating compound + maximum [MTA], and BRETMAX = BRET signal under vehicle conditions. Curves were fit using Eq. (3), and EC50 values were plotted against MTA concentration to determine the linear range of MTA detection.
PRMT5:MEP50 = test system: PRMT5:MEP50; set-up: method as in ref 1 (a number printed in a supplementary file, which may have a reference list of its own: not looked up in the article's list); settings: HTRF, H4R3 monomethylation; read-out: Biochemical (nM), IC50; cited from earlier work

NLuc-PRMT5 co-expressed with WDR77, sequence (O14744 whole entry): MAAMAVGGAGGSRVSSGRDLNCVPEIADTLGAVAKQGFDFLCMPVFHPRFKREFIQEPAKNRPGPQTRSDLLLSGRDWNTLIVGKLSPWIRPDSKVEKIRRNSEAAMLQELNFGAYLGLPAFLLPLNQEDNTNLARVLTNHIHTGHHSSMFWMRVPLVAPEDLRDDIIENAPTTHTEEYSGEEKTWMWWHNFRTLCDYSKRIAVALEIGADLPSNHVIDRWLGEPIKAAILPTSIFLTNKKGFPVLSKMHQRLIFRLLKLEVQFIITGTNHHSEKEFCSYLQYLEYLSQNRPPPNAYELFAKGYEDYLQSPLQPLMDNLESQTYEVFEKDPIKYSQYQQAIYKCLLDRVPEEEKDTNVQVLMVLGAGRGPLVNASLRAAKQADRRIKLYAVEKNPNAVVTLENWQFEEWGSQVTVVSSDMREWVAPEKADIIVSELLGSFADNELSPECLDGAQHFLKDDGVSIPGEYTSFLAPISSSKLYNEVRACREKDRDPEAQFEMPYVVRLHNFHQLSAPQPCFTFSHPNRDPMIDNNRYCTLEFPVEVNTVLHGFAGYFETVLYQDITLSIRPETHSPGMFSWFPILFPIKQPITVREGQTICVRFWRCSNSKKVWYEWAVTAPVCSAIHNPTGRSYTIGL
NLuc-PRMT5 co-expressed with WDR77, sequence (Q9BQA1 whole entry partner): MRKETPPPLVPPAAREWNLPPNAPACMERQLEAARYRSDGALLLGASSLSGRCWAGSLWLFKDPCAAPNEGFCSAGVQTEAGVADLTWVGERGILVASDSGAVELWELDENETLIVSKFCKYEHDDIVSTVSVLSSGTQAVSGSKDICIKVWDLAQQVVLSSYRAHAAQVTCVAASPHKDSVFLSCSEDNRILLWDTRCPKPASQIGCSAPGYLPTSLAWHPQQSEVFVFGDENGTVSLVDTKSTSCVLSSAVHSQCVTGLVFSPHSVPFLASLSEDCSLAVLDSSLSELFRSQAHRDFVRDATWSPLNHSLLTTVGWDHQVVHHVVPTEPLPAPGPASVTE

## Nc1nc(=O)n(-c2ccccc2Cl)c2nc(C(F)(F)F)ccc12 [Compound A]
MAT2A [1]; uM 0.35, Time 0 min
  normalized BRET signal (Figure S3D): 102.31 and 101.27 and 102.49
MAT2A [1]; uM 0.35, Time 15 min
  normalized BRET signal (Figure S3D): 102.22 and 100.75 and 100.92
MAT2A [1]; uM 0.35, Time 30 min
  normalized BRET signal (Figure S3D): 98.94 and 102.77 and 99.88
MAT2A [1]; uM 0.35, Time 45 min
  normalized BRET signal (Figure S3D): 101.50 and 99.61 and 97.49
MAT2A [1]; uM 0.35, Time 60 min
  normalized BRET signal (Figure S3D): 100.91 and 99.04 and 97.98
MAT2A [1]; uM 0.35, Time 75 min
  normalized BRET signal (Figure S3D): 100.10 and 98.57 and 96.49
MAT2A [1]; uM 0.35, Time 90 min
  normalized BRET signal (Figure S3D): 99.02 and 98.37 and 97.43
MAT2A [1]; uM 0.35, Time 120 min
  normalized BRET signal (Figure S3D): 96.41 and 97.99 and 95.04
MAT2A [1]; uM 0.82, Time 0 min
  normalized BRET signal (Figure S3D): 101.24 and 100.09 and 103.66
MAT2A [1]; uM 0.82, Time 15 min
  normalized BRET signal (Figure S3D): 101.29 and 99.47 and 102.07
MAT2A [1]; uM 0.82, Time 30 min
  normalized BRET signal (Figure S3D): 99.28 (2×) and 100.85
MAT2A [1]; uM 0.82, Time 45 min
  normalized BRET signal (Figure S3D): 99.67 and 98.96 and 100.10
MAT2A [1]; uM 0.82, Time 60 min
  normalized BRET signal (Figure S3D): 100.24 and 98.62 and 99.55
MAT2A [1]; uM 0.82, Time 75 min
  normalized BRET signal (Figure S3D): 100.92 and 98.42 and 98.44
MAT2A [1]; uM 0.82, Time 90 min
  normalized BRET signal (Figure S3D): 100.92 and 98.07 and 97.73
MAT2A [1]; uM 0.82, Time 120 min
  normalized BRET signal (Figure S3D): 98.05 and 98.30 and 97.43
MAT2A [1]; uM 0.82, Time (h) 2
  Normalized BRET probe signal: 80.32 and 82.63 and 81.99
MAT2A [1]; uM 0.82, Time (h) 4
  Normalized BRET probe signal: 62.79
MAT2A [1]; uM 0.82, Time (h) 5
  Normalized BRET probe signal: 55.09 and 56.94 and 59.00
MAT2A [1]; uM 1.30, Time 0 min
  normalized BRET signal (Figure S3D): 100.00
MAT2A [1]; uM 1.30, Time 15 min
  normalized BRET signal (Figure S3D): 100.00
MAT2A [1]; uM 1.30, Time 30 min
  normalized BRET signal (Figure S3D): 100.00
MAT2A [1]; uM 1.30, Time 45 min
  normalized BRET signal (Figure S3D): 100.00
MAT2A [1]; uM 1.30, Time 60 min
  normalized BRET signal (Figure S3D): 100.00
MAT2A [1]; uM 1.30, Time 75 min
  normalized BRET signal (Figure S3D): 100.00
MAT2A [1]; uM 1.30, Time 90 min
  normalized BRET signal (Figure S3D): 100.00
MAT2A [1]; uM 1.30, Time 120 min
  normalized BRET signal (Figure S3D): 100.00
MAT2A [1]; uM 1.30, Time (h) 3
  Normalized BRET probe signal: 81.83 and 81.36 and 78.63
MAT2A [1]; uM 1.30, Time (h) 4
  Normalized BRET probe signal: 64.66 and 66.78 and 66.04
MAT2A [1]; uM 1.30, Time (h) 6
  Normalized BRET probe signal: 52.27 and 54.37 and 54.09
MAT2A [1]; uM 1.30, Time […]
  normalized BRET signal (Figure S3D): 100.00
MAT2A [1]; uM -0.13, Time 0 min
  normalized BRET signal (Figure S3D): 102.61
MAT2A [1]; uM -0.13, Time 30 min
  normalized BRET signal (Figure S3D): 99.28
MAT2A [1]; uM -0.13, Time 45 min
  normalized BRET signal (Figure S3D): 99.89 and 99.35 and 98.26
MAT2A [1]; uM -0.13, Time 60 min
  normalized BRET signal (Figure S3D): 99.27 and 98.76 and 97.87
MAT2A [1]; uM -0.13, Time 75 min
  normalized BRET signal (Figure S3D): 99.29 and 98.14 and 96.57
MAT2A [1]; uM -0.13, Time 90 min
  normalized BRET signal (Figure S3D): 99.41 and 97.78 and 96.89
MAT2A [1]; uM -0.13, Time 120 min
  normalized BRET signal (Figure S3D): 97.11 and 97.69
MAT2A [1]; uM -1.56, Time (h) 2
  Normalized BRET probe signal: 86.27 and 89.51 and 86.94
MAT2A [1]; uM -1.56, Time (h) 3
  Normalized BRET probe signal: 78.52 and 78.24 and 76.36
MAT2A [1]; uM -1.56, Time (h) 5
  Normalized BRET probe signal: 56.30 and 59.42 and 61.19
MAT2A [1]; uM -1.56, Time (h) 6
  Normalized BRET probe signal: 57.39 and 58.36 and 56.05
MAT2A [1]; uM -2.04, Time (h) 2
  Normalized BRET probe signal: 91.78 and 93.83 and 92.35
MAT2A [1]; uM -2.04, Time (h) 3
  Normalized BRET probe signal: 84.09 and 82.20 and 80.64
MAT2A [1]; uM -2.04, Time (h) 4
  Normalized BRET probe signal: 71.87 and 73.84 and 72.51
MAT2A [1]; uM -2.04, Time (h) 5
  Normalized BRET probe signal: 61.86 and 65.39 and 67.66
MAT2A [1]; uM -2.04, Time (h) 6
  Normalized BRET probe signal: 67.16 and 64.98 and 63.98
MAT2A [1]; uM -2.52, Time (h) 2
  Normalized BRET probe signal: 97.92 and 101.07 and 97.78
MAT2A [1]; uM -2.52, Time (h) 3
  Normalized BRET probe signal: 92.42 and 90.78 and 89.69
MAT2A [1]; uM -2.52, Time (h) 4
  Normalized BRET probe signal: 81.28 and 83.71 and 82.94
MAT2A [1]; uM -2.52, Time (h) 5
  Normalized BRET probe signal: 74.64 and 76.80 and 79.27
MAT2A [1]; uM -2.52, Time (h) 6
  Normalized BRET probe signal: 75.70 and 75.54 and 75.07
MAT2A [1]; uM -2.99, Time (h) 2
  Normalized BRET probe signal: 99.19 and 102.22 and 99.77
MAT2A [1]; uM -2.99, Time (h) 3
  Normalized BRET probe signal: 95.84 and 93.35 and 94.20
MAT2A [1]; uM -2.99, Time (h) 4
  Normalized BRET probe signal: 94.50 and 92.51 and 93.76
MAT2A [1]; uM -2.99, Time (h) 5
  Normalized BRET probe signal: 87.56 and 91.04 and 95.19
MAT2A [1]; uM -2.99, Time (h) 6
  Normalized BRET probe signal: 89.25 and 91.90 and 87.75
MAT2A [1]; uM -3.47, Time (h) 2
  Normalized BRET probe signal: 98.78 and 102.46 and 100.43
MAT2A [1]; uM -3.47, Time (h) 3
  Normalized BRET probe signal: 98.17 and 97.18 and 96.26
MAT2A [1]; uM -3.47, Time (h) 4
  Normalized BRET probe signal: 96.70 and 95.88 and 97.43
MAT2A [1]; uM -3.47, Time (h) 5
  Normalized BRET probe signal: 93.94 and 96.00 and 96.68
MAT2A [1]; uM -3.47, Time (h) 6
  Normalized BRET probe signal: 97.50 and 96.53 and 90.92
MAT2A [1]; live cells, pre-equilibrated CBH-002, 37 °C
  Time to plateau of BRET inhibition: ~ 5 h
MAT2A [1]; room temperature, 2-h interval
  Effect on CBH-002 binding at room temperature: did not impact CBH-002 binding
MAT2A [2]; uM 0.82, Time (h) 6
  Normalized BRET probe signal: 54.59 and 55.03 and 49.39
MAT2A [2]; uM 1.30, Time (h) 2
  Normalized BRET probe signal: 83.43 and 85.48 and 85.77
MAT2A [2]; uM 1.30, Time (h) 5
  Normalized BRET probe signal: 54.62 and 56.32 and 57.46
MAT2A [2]; uM -1.56, Time (h) 4
  Normalized BRET probe signal: 64.62 and 64.77 and 65.94

## O=C(NC[C@H](O)CN1CCc2ccccc2C1)c1cc(NC2COC2)ncn1 [EPZ015666]
Z-138 cells
  IC50: 62 nM
[3]; Global Gaddum/Schild EC50 shift fit, MTA titration, HEK293
  Schild slope: 1.3 (1.15 - 1.47)
[3]; [MTA] 0 μM, HEK293
  Hill slope: 0.81
[3]; [MTA] 11.11 μM, HEK293
  Hill slope: 0.77
[3]; [MTA] 100 μM, HEK293
  Hill slope: 0.72
[3]; [MTA] 300 μM, HEK293
  Hill slope: 0.87
[3]; constant across [MTA], constrained to 1 for PF06939999 and GSK3326595
  Hill slope (Global/Schild fit): 0.75 (0.73 - 0.78)

## CC(=O)N1CCC(Nc2cc(C(=O)NC[C@H](O)CN3CCc4ccccc4C3)ncn2)CC1 [GSK3326595]
PRMT5:MEP50
  IC50: 6.2 nM
